Calls of active or inactive are those of the source. The rule behind the calls is not given here.
Assays:
[1] = target: T1, Tyrosine-protein phosphatase non-receptor type 11 (Homo sapiens, UniProt Q06124); experiment: Inhibition of SHP2 PTP domain (unknown origin) using DiFMUP as substrate preincubated for 20 mins followed by substrate addition and measured for 2 hrs by fluorescence based analysis
T1 sequence (Q06124 whole entry): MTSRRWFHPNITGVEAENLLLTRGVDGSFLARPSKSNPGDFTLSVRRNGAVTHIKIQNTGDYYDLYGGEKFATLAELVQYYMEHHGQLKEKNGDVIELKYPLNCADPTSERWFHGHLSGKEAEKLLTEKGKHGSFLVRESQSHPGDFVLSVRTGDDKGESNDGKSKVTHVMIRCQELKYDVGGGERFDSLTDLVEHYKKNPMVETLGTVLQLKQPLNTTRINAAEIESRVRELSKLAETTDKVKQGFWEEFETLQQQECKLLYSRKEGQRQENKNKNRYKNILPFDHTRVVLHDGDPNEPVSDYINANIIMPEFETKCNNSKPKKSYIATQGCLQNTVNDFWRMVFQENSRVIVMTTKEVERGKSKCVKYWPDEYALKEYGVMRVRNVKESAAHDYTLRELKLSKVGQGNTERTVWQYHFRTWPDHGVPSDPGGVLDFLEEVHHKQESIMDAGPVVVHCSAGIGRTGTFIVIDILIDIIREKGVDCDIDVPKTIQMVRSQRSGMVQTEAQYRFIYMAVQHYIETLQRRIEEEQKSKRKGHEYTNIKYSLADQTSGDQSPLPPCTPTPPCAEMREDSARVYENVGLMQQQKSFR

[2] = target: T2, Tyrosine-protein phosphatase non-receptor type 11 (Homo sapiens) (UniProt Q06124); experiment: Inhibition of SHP2 downstream signalling in human MDA-MB-231 cells assessed as decrease in pERK1/2 protein level measured after 72 hrs by Western blot analysis; format: cell-based; conditions: dose 1.25-20 µM, DDE = dose-dependent effect
T2 sequence (whole entry): T1 sequence (Q06124 whole entry)

CDK4/Cyclin D3 = CDK4/Cyclin D3 (Homo sapiens, UniProt P11802); experiment: Inhibition of recombinant N-terminal GST/His6-fusion tagged human CDK4/Cyclin D3 expressed in Sf9 insect cells incubated for 20 mins followed by [33P]gamma-ATP addition and measured after 2 hrs by radiometric HotSpot Kinase assay
CDK4/Cyclin D3, sequence (P11802 whole entry, the tested form may be a part): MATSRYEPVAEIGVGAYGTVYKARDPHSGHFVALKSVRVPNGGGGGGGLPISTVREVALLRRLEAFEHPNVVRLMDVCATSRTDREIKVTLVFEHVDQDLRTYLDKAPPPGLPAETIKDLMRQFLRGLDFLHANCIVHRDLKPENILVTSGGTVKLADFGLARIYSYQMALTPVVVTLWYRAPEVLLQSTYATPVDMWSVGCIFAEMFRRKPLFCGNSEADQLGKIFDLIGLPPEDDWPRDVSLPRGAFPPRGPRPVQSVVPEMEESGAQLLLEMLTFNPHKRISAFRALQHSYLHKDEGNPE
CDK4/Cyclin D3, sequence (P30281 whole entry, further chain, the tested form may be a part): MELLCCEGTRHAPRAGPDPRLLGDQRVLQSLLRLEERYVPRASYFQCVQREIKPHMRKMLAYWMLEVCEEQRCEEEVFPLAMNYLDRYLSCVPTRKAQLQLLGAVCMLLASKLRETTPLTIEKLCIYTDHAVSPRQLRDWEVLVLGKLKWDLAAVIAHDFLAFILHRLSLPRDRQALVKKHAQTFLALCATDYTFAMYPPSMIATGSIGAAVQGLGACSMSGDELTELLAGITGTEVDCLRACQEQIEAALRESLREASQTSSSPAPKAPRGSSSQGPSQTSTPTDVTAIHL

[3] = AUC in ICR mouse at 1 mg/kg, iv measured upto 24 hrs by LC-MS/MS analysis; format: ADME, organism-based; design: time < 24 hrs, dose 1 mg/kg, route iv; conditions: in vivo
EMT6 [4] = experiment: Antitumor activity against mouse EMT6 cells implanted in BALB/c mouse syngenic model assessed as downregulation of pERK level in tumor at 20 to 40 mg/kg, po qd measured after 18 days by immunohistochemical analysis; format: functional, organism-based; conditions: dose 20-40 mg/kg, time 18.0 day
[5] = Toxicity in BALB/c nude mouse implanted with mouse EMT6 cells assessed as mortality at 40 mg/kg, po qd and measured every 2 days for 18 days; format: organism-based; conditions: in vivo, 432 h, time 18 day
MDA-MB-231 [6] = experiment: Induction of apoptosis in human MDA-MB-231 cells assessed as early apoptotic cells at 1 uM measured after 48 hrs by Annexin V-FITC/PI staining based flow cytometric analysis (reference value: 0.32%); format: functional
MDA-MB-231 [7] = experiment: Upregulation of p-STAT3 protein expression in human MDA-MB-231 cells at 0.25 to 20 uM measured after 72 hrs by Western blot analysis; format: functional, cell-based; conditions: dose 0.25-20 µM
[8] = target: Cyclin-dependent kinase 4 (Homo sapiens) (UniProt P11802); experiment: Inhibition of CDK4 downstream signalling in human MDA-MB-231 cells assessed as decrease in p-retinoblastoma protein level measured after 72 hrs by Western blot analysis; format: cell-based; conditions: dose 1.25-20 µM, DDE = dose-dependent effect
Cyclin-dependent kinase 4 (Homo sapiens), sequence (P11802 whole entry): as the sequence (P11802 whole entry, the tested form may be a part) above

MDA-MB-231 [9] = experiment: Induction of apoptosis in human MDA-MB-231 cells assessed as late apoptotic cells at 3 uM measured after 48 hrs by Annexin V-FITC/PI staining based flow cytometric analysis (reference value: 1.06%); format: functional
[10] = Cmax in ICR mouse at 10 mg/kg, po measured upto 24 hrs by LC-MS/MS analysis; format: ADME, organism-based; design: time < 24 hrs, dose 10 mg/kg, route po; conditions: in vivo
EMT6 [11] = experiment: Antiproliferative activity against mouse EMT6 cells assessed as inhibition of cell growth incubated for 48 hrs by MTT assay; format: functional, cell-based; conditions: Mus musculus, EMT6, 48 h
MDA-MB-231 [12] = experiment: Induction of apoptosis in human MDA-MB-231 cells assessed as necrotic cells at 1 uM measured after 48 hrs by Annexin V-FITC/PI staining based flow cytometric analysis (reference value: 0.58%); format: functional
MDA-MB-231 [13] = experiment: Induction of cell cycle arrest in human MDA-MB-231 cells assessed as accumulation of cells in G0/G1 phase at 3 uM incubated for 48 hrs by RNase/propidium iodide staining based flow cytometry analysis (reference value: 26.2%); format: functional
MDA-MB-231 [14] = experiment: Induction of apoptosis in human MDA-MB-231 cells assessed as viable cells at 3 uM measured after 48 hrs by Annexin V-FITC/PI staining based flow cytometric analysis (reference value: 98.04%); format: functional; conditions: read-out: Activity
EMT6 [15] = experiment: Antitumor activity against mouse EMT6 cells implanted in BALB/c mouse syngenic model assessed as downregulation of Ki67 level in tumor at 20 to 40 mg/kg, po qd measured after 18 days by immunohistochemical analysis; format: functional, organism-based; conditions: dose 20-40 mg/kg, time 18.0 day
MDA-MB-231 [16] = experiment: Induction of apoptosis in human MDA-MB-231 cells assessed as viable cells at 1 uM measured after 48 hrs by Annexin V-FITC/PI staining based flow cytometric analysis (reference value: 98.04%); format: functional; conditions: read-out: Activity
EMT6 [17] = experiment: Antitumor activity against mouse EMT6 cells implanted in BALB/c mouse syngenic model assessed as downregulation of p-retinoblastoma level in tumor at 20 mg/kg, po bid measured after 18 days by immunohistochemical analysis; format: functional, organism-based; conditions: time 18.0 day
CDK3/Cyclin E = CDK3/Cyclin E (Homo sapiens, UniProt Q00526); experiment: Inhibition of recombinant N-terminal GST/His6-fusion tagged human CDK3/Cyclin E expressed in Sf9 insect cells incubated for 20 mins followed by [33P]gamma-ATP addition and measured after 2 hrs by radiometric HotSpot Kinase assay
CDK3/Cyclin E, sequence (P24864 whole entry, the tested form may be a part): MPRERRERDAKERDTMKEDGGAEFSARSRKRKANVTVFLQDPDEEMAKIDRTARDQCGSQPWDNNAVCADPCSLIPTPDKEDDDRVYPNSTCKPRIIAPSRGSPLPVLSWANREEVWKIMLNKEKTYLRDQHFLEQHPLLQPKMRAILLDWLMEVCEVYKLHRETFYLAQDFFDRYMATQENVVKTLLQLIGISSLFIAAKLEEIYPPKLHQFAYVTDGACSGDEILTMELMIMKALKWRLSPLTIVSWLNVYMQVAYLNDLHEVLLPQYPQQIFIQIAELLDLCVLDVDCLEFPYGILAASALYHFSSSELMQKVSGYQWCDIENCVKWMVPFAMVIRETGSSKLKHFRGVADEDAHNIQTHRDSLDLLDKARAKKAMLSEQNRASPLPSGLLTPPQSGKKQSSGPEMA
CDK3/Cyclin E, sequence (Q00526 whole entry, the tested form may be a part): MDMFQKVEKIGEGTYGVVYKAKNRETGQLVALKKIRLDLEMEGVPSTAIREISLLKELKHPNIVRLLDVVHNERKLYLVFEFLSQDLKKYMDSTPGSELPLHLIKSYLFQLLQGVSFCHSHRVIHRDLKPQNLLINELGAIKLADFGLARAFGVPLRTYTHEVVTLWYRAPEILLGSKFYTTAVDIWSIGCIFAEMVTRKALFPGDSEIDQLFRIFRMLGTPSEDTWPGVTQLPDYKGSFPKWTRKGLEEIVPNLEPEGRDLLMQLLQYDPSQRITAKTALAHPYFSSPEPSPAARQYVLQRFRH

[18] = Terminal half life in ICR mouse at 1 mg/kg, iv measured upto 24 hrs by LC-MS/MS analysis; format: ADME, organism-based; conditions: in vivo, read-out: beta t1/2 (converted)
MDA-MB-231 [19] = experiment: Induction of cell cycle arrest in human MDA-MB-231 cells assessed as accumulation of cells in G2/M phase at 3 uM incubated for 48 hrs by RNase/propidium iodide staining based flow cytometry analysis (reference value: 2.7%); format: functional
EMT6 [20] = experiment: Antitumor activity against mouse EMT6 cells implanted in BALB/c mouse syngenic model assessed as tumor growth inhibition at 20 mg/kg, po bid and measured after 18 days relative to control; format: functional; conditions: EMT6, 432 h, time 18 day, read-out: TGI
[21] = Volume of distribution in ICR mouse at 1 mg/kg, iv measured upto 24 hrs by LC-MS/MS analysis; format: ADME, organism-based; conditions: in vivo
[22] = Inhibition of recombinant N-terminal GST/His6-fusion tagged human CDK1/Cyclin B expressed in Sf9 insect cells incubated for 20 mins followed by [33P]gamma-ATP addition and measured after 2 hrs by radiometric HotSpot Kinase assay
MDA-MB-231 [23] = experiment: Antiproliferative activity against human MDA-MB-231 cells assessed as inhibition of cell growth incubated for 48 hrs by MTT assay; format: functional, cell-based; conditions: Homo sapiens, MDA-MB-231, 48 h

Cc1nc2c(F)cc(-c3nc(Nc4nccc(Sc5cnc(N6CCC7(CC6)CO[C@@H](C)[C@H]7N)cn5)c4Cl)ncc3F)cc2n1C(C)C
IC50 [1]: > 20 µM | inhibition [2]: Dde | IC50 (CDK4/Cyclin D3): 0.0182 µM | AUC at 24 h [3]: 1.2 µg·h/mL | Activity (EMT6 [4]): Active | Activity [5]: Non-Toxic | Activity (MDA-MB-231 [6]): 7.29% | Activity (MDA-MB-231 [7]): Active | inhibition [8]: Dde | Activity (MDA-MB-231 [9]): 7.25% | Cmax [10]: 0.634 µg/mL | IC50 (EMT6 [11]): 0.64 µM | Activity (MDA-MB-231 [12]): 1.16% | Activity (MDA-MB-231 [13]): 58.9% | viability at 3 µM (MDA-MB-231 [14]): 82% | Activity (EMT6 [15]): Active | viability at 1 µM (MDA-MB-231 [16]): 86.3% | Activity (EMT6 [17]): Active | IC50 (CDK3/Cyclin E): > 1 µM | half-life [18]: 2.11 h | Activity (MDA-MB-231 [19]): 1.5% | inhibition in vivo at 20 mg/kg (EMT6 [20]): 89% | Vd [21]: 2.53 L/kg | IC50 [22]: 0.21 µM | IC50 (MDA-MB-231 [23]): 5.57 µM

From ChEMBL document CHEMBL5154884, “Discovery of a Novel Src Homology-2 Domain Containing Protein Tyrosine Phosphatase-2 (SHP2) and Cyclin-Dependent Kinase 4 (CDK4) Dual Inhibitor for the Treatment of Triple-Negative Breast Cancer” (J Med Chem, 2022)
